Experimental data reported in ChEMBL document CHEMBL1201862, “PubChem BioAssay data set” (2004).
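Growth conditions: 96-well plates. Treatment: test compound, 48 hours, 5 concentrations. Analysis: linear interpolation between bracketing concentrations; unreached endpoints set to highest concentration. GI50 marks 50% less growth.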 Active and inactive are the calls of the source. No stated cut-off is given here; in the data, active = GI50 up to about 1.1 µM and inactive = higher.

Legend:
Test in all cases: DTP human tumour cell line panel, 48 h
COLO 205 = tested on: COLO 205
A549 = tested on: A549
NCI-H460 = tested on: NCI-H460
SR = tested on: SR
NCI-H226 = tested on: NCI-H226
OVCAR-4 = tested on: OVCAR-4
UO-31 = tested on: UO-31
RPMI-8226 = tested on: RPMI-8226
SF-539 = tested on: SF-539
HOP-92 = tested on: HOP-92
SNB-75 = tested on: SNB-75
ACHN = tested on: ACHN
HCT-116 = tested on: HCT-116
OVCAR-8 = tested on: OVCAR-8
T47D = tested on: T47D
HOP-62 = tested on: HOP-62
NCI-H522 = tested on: NCI-H522
HL-60 = tested on: HL-60
Hs-578T = tested on: Hs-578T

Measured: GI50

Cc1cn(C(C)OCCN2C(=O)c3ccccc3C2=O)c(=O)[nH]c1=O (stereo not drawn)
inactive: COLO 205 > 100 µM | A549 > 100 µM | NCI-H460 > 100 µM | SR > 100 µM | NCI-H226 > 100 µM | OVCAR-4 > 100 µM | UO-31 > 100 µM | RPMI-8226 > 100 µM | SF-539 > 100 µM | HOP-92 > 100 µM | SNB-75 > 100 µM | ACHN > 100 µM | HCT-116 > 100 µM | OVCAR-8 > 100 µM | T47D > 100 µM | HOP-62 > 100 µM

O=C(N/C(=C\c1ccc(/C=C(\NC(=O)c2ccccc2)c2nc3c(O)nc(S)nc3[nH]2)cc1)c1nc2c(O)nc(S)nc2[nH]1)c1ccccc1
inactive: COLO 205 > 100 µM | A549 > 100 µM | NCI-H460 > 100 µM | OVCAR-4 25.9 µM | UO-31 > 100 µM | NCI-H522 14.6 µM | RPMI-8226 29.4 µM | SF-539 61.9 µM | HOP-92 > 100 µM | SNB-75 26.4 µM | ACHN 95.7 µM | HCT-116 44.8 µM | OVCAR-8 74.6 µM | HOP-62 > 100 µM

CC(=O)OC(COc1ccc2c(c1)[n+]([O-])nc(N)[n+]2[O-])CN1CCCCC1 (stereo not drawn)
inactive: COLO 205 4.85 µM | A549 15.3 µM | NCI-H460 3.97 µM | SR 12.2 µM | NCI-H226 15.3 µM | OVCAR-4 30.7 µM | UO-31 25.3 µM | NCI-H522 11.1 µM | RPMI-8226 5.58 µM | SF-539 15.2 µM | HOP-92 17.4 µM | SNB-75 18.2 µM | ACHN 6.79 µM | HCT-116 10.3 µM | OVCAR-8 13.8 µM | HL-60 5.12 µM

O=S(=O)(O)c1cc(O)c2c(/N=C\c3ccccc3O)cc(S(=O)(=O)O)cc2c1
inactive: COLO 205 > 100 µM | A549 > 100 µM | NCI-H460 > 100 µM | SR > 100 µM | NCI-H226 > 100 µM | OVCAR-4 > 100 µM | UO-31 > 100 µM | NCI-H522 > 100 µM | RPMI-8226 > 100 µM | SF-539 > 100 µM | HOP-92 > 100 µM | SNB-75 93.5 µM | ACHN > 100 µM | HCT-116 > 100 µM | OVCAR-8 > 100 µM | HL-60 57.9 µM | T47D 82.6 µM | HOP-62 > 100 µM

Cn1c(=O)sc2cc(C(=S)N3CCN(c4ccccc4)CC3)ccc21
inactive: COLO 205 > 100 µM | NCI-H460 51.9 µM | SR 6.67 µM | NCI-H226 55.3 µM | RPMI-8226 > 100 µM | SF-539 24.4 µM | Hs-578T 55.8 µM | SNB-75 28.7 µM | ACHN 70.3 µM | HCT-116 85.5 µM | OVCAR-8 38.4 µM | HL-60 33.6 µM | HOP-62 18.5 µM

Nc1ncnc2c1ncn2[C@]1(CO)C=C(CO)C(O)C1O (stereo partly drawn)
inactive: COLO 205 > 100 µM | A549 > 100 µM | NCI-H460 > 100 µM | SR > 100 µM | NCI-H226 > 100 µM | OVCAR-4 > 100 µM | NCI-H522 > 100 µM | RPMI-8226 > 100 µM | HOP-92 > 100 µM | SNB-75 > 100 µM | ACHN > 100 µM | HCT-116 73.1 µM | HL-60 > 100 µM | HOP-62 52.5 µM

CC1(C)OC2COC3([C@@H]4OC(C)(C)O[C@@H]4CO)OC(C)(C)OC3C2O1 (stereo partly drawn)
inactive: COLO 205 > 100 µM | A549 > 100 µM | NCI-H460 > 100 µM | SR > 100 µM | NCI-H226 > 100 µM | OVCAR-4 > 100 µM | UO-31 > 100 µM | RPMI-8226 > 100 µM | SF-539 > 100 µM | HOP-92 > 100 µM | SNB-75 > 100 µM | ACHN > 100 µM | HCT-116 > 100 µM | OVCAR-8 > 100 µM | T47D > 100 µM | HOP-62 > 100 µM

Cc1nc2c(cc1C(=O)NN)c(=O)n(C)c(=O)n2C
inactive: COLO 205 > 100 µM | A549 > 100 µM | NCI-H460 > 100 µM | NCI-H226 > 100 µM | OVCAR-4 > 100 µM | UO-31 > 100 µM | RPMI-8226 > 100 µM | SNB-75 > 100 µM | ACHN > 100 µM | HCT-116 > 100 µM | OVCAR-8 > 100 µM | T47D > 100 µM | HOP-62 > 100 µM

NC(Cc1c2ccccc2cc2ccccc12)C(=O)O (stereo not drawn)
inactive: COLO 205 38.4 µM | A549 > 100 µM | NCI-H460 59.8 µM | SR 68.9 µM | NCI-H226 22.5 µM | OVCAR-4 > 100 µM | UO-31 78.7 µM | NCI-H522 > 100 µM | SF-539 > 100 µM | HOP-92 61.1 µM | SNB-75 14 µM | ACHN 83 µM | HCT-116 83.9 µM | OVCAR-8 8.09 µM | HL-60 > 100 µM | T47D > 100 µM | HOP-62 67.3 µM

CC(C)COC1Sc2ccccc2S1
inactive: COLO 205 32.4 µM | A549 20.5 µM | NCI-H460 7.85 µM | OVCAR-4 23.1 µM | UO-31 15.5 µM | RPMI-8226 5.45 µM | HOP-92 14.5 µM | SNB-75 1.32 µM | ACHN 15.7 µM | OVCAR-8 29.1 µM | HOP-62 21.4 µM
